Experimental data taken from US20120190687A1, “Pyrazinylpyrazoles” (Bayer CropScience Ag, priority 2009, published 2012).

Legend:
[1] = system: Lucilia cuprina larvae; assay: Lucilia cuprina test (LUCICU); type: in vivo; details: 100 ppm, treated horse meat, after 2 days
Experimental: (§1) Lucilia cuprina Test (LUCICU) Solvent: Dimethyl Sulphoxide To prepare an appropriate active ingredient formulation, 10 mg of active ingredient are mixed with 0.5 ml of dimethyl sulphoxide and the concentrate is diluted with water to the desired concentration. Vessels containing horse meat treated with the active ingredient preparation of the desired concentration are populated with about 20 Lucilia cuprina larvae. After 2 days, the kill in % is determined. 100% means that all of the larvae have been killed; 0% means that none of the larvae have been killed.

[2] = system: Boophilus microplus; assay: Boophilus microplus test (BOOPMI injection); type: in vivo; details: 20 μg/animal, injection into abdomen, after 7 days, laying of fertile eggs
Experimental: Boophilus microplus Test (BOOPMI Injection) Solvent: Dimethyl Sulphoxide To prepare an appropriate active ingredient formulation, 10 mg of active ingredient are mixed with 0.5 ml of solvent and the concentrate is diluted with solvent to the desired concentration. The active ingredient solution is injected into the abdomen (Boophilus microplus), and the animals are transferred into dishes and stored in a climate-controlled room. The efficacy is assessed by laying of fertile eggs. After 7 days, the efficacy in % is determined. 100% means that none of the ticks has laid any fertile eggs.

[3] = system: Tetranychus urticae; assay: Tetranychus test, OP-resistant (TETRUR spray treatment); type: in vivo; details: 500 g/ha, bean leaf discs, after 6 days
Experimental: Tetranychus Test, OP-resistant (TETRUR Spray Treatment)
Solvent: 78.0 parts by weight of acetone • • 1.5 parts by weight of dimethylformamide
Emulsifier: 0.5 part by weight of alkylaryl polyglycol ether
To prepare an appropriate active ingredient preparation, 1 part by weight of active ingredient is mixed with the stated amounts of solvent and emulsifier, and the concentrate is diluted with emulsifier-containing water to the desired concentration. Discs of bean leaves (Phaseolus vulgaris) infested by all stages of the red spider mite (Tetranychus urticae) are sprayed with an active ingredient preparation of the desired concentration. After 6 days, the efficacy in % is determined. 100% means that all spider mites have been killed; 0% means that none of the spider mites have been killed.

[4] = system: Phaedon cochleariae; assay: Phaedon test (PHAECO spray treatment); type: in vivo; details: 500 g/ha, Chinese cabbage discs, after 7 days
Experimental: Phaedon Test ([…] Spray Treatment) Solvent: 78.0 parts by weight of acetone • • 1.5 parts by weight of dimethylformamide Emulsifier: 0.5 part by weight of alkylaryl polyglycol ether To prepare an appropriate active ingredient preparation, 1 part by weight of active ingredient is mixed with the stated amounts of solvent and emulsifier, and the concentrate is diluted with emulsifier-containing water to the desired concentration. Discs of Chinese cabbage (Brassica pekinensis) are sprayed with an active ingredient preparation of the desired concentration and, after drying, populated with larvae of the mustard beetle (Phaedon cochleariae). After 7 days, the efficacy in % is determined. 100% means that all beetle larvae have been killed; 0% means that none of the beetle larvae have been killed.

[5] = system: Musca domestica; assay: Musca domestica test; type: in vivo; details: 100 ppm, after 2 days
Experimental: as §1, with “Musca domestica” for “Lucilia cuprina”, “Test” for “Test (LUCICU)”, “a sponge” for “horse meat”, “adult Musca domestica.” for “about 20 Lucilia cuprina larvae.”, “flies” for “larvae”

[6] = system: Spodoptera frugiperda; assay: Spodoptera frugiperda test (SPODFR spray treatment); type: in vivo; details: 500 g/ha, maize leaf discs, after 7 days
Experimental: Spodoptera frugiperda Test (SPODFR Spray Treatment) Solvent: 78.0 parts by weight of acetone • • 1.5 parts by weight of dimethylformamide Emulsifier: 0.5 part by weight of alkylaryl polyglycol ether To prepare an appropriate active ingredient preparation, 1 part by weight of active ingredient is mixed with the stated amounts of solvent and emulsifier, and the concentrate is diluted with emulsifier-containing water to the desired concentration. Discs of maize leaves (Zea mays) are sprayed with an active ingredient preparation of the desired concentration and, after drying, populated with caterpillars of the armyworm (Spodoptera frugiperda). After 7 days, the efficacy in % is determined. 100% means that all caterpillars have been killed; 0% means that none of the caterpillars have been killed.

[7] = logP by reversed-phase HPLC (EEC Directive 79/831 Annex V.A8); type: physicochemical
Excerpt: [table] The calibration is effected with unbranched alkan-2-ones (having 3 to 16 carbon atoms) with known log P values (log P values determined on the basis of the retention times by linear interpolation between two successive alkanones).

[8] = system: Ctenocephalides felis; assay: Ctenocephalides felis test (CTECFE); type: in vivo; details: 100 ppm in citrated cow's blood, after 2 days
Experimental: Ctenocephalides felis Test ([…]) Solvent: 1 Part by Weight of Dimethyl Sulphoxide For the purpose of preparing an appropriate active ingredient formulation, 10 mg of active ingredient are mixed with 0.5 ml of dimethyl sulphoxide. A portion of the concentrate is diluted with citrated cow's blood and the desired concentration is established. About 20 unfed adult fleas (Ctenocephalides felis) are introduced into a chamber closed at the top and bottom with gauze. A metal cylinder, the bottom of which is closed with Parafilm, is placed onto the chamber. The cylinder contains the blood/active ingredient preparation, which can be imbibed by the fleas through the Parafilm membrane. After 2 days, the kill in % is determined. 100% means that all fleas have been killed; 0% means that none of the fleas have been killed.

[9] = system: Myzus persicae; assay: Myzus test (MYZUPE spray treatment); type: in vivo; details: 500 g/ha, Chinese cabbage discs, after 6 days
Experimental: Myzus test (MYZUPE Spray Treatment) Solvent: 78 parts by weight of acetone • • 1.5 parts by weight of dimethylformamide Emulsifier: 0.5 part by weight of alkylaryl polyglycol ether To prepare an appropriate active ingredient preparation, 1 part by weight of active ingredient is mixed with the stated amounts of solvent and emulsifier, and the concentrate is diluted with emulsifier-containing water to the desired concentration. Discs of Chinese cabbage (Brassica pekinensis) infested by all stages of the green peach aphid (Myzus persicae) are sprayed with an active ingredient preparation of the desired concentration. After 6 days, the efficacy in % is determined. 100% means that all of the aphids have been destroyed; 0% means that none of the aphids have been destroyed.

[10] = * LC-MS, acidic range, pH 2.7, 0.1% aqueous formic acid / acetonitrile

Row | Compound | log P [7, 10] | log P ([7]; *** LC-MS, neutral range, pH 7.8, 0.001 molar aqueous ammonium hydrogencarbonate / acetonitrile) | efficacy (kill) [1] [%] | efficacy [2] [%] | efficacy [3] [%] | efficacy [4] [%] | efficacy (kill) [5] [%] | efficacy [6] [%] | efficacy (kill) [8] [%] | efficacy [9] [%]
1 | CCC(OC)c1nn(-c2nccnc2OC)c(N)c1-c1ccc(Cl)c(Cl)c1 (centres unmarked) [Ex. 3] | – | – | 100 | 100 | 100 | 100 | – | – | – | –
2 | COc1nccnc1-n1nc(C(F)(F)F)c(-c2cc(Cl)cc(Cl)c2)c1N [Ex. 6] | 3.95* | – | 100 | 100 | – | 100 | 80 | 83 | 90 | –
3 | C=Cc1nn(-c2nccnc2OC)c(N)c1-c1cc(Cl)cc(C(F)(F)F)c1 [Ex. 9] | 3.63* | – | 100 | 100 | 100 | 100 | – | 100 | – | 100
4 | COc1nccnc1-n1nc(C(F)(F)F)c(-c2cc(Cl)cc(C(F)(F)F)c2)c1N [Ex. 10] | 4.07* | – | 100 | 100 | – | – | 100 | – | 90 | –
5 | CCOc1nccnc1-n1nc(C(F)(F)F)c(-c2cc(Cl)cc(C(F)(F)F)c2)c1N [Ex. 12] | 4.47* | – | 100 | 100 | 90 | 100 | 100 | – | 90 | –
6 | COc1nccnc1-n1nc(C(F)(F)C(F)(F)F)c(-c2cc(F)cc(C(F)(F)F)c2)c1N [Ex. 21] | 4.23* | – | 100 | 100 | 100 | 100 | 100 | 100 | – | 100
7 | CSc1nccnc1-n1nc(C(F)(F)F)c(-c2cc(Cl)cc(C(F)(F)F)c2)c1N [Ex. 28] | 4.9* | – | 100 | 100 | – | 100 | – | 100 | – | –
8 | COc1nccnc1-n1nc(C(F)(F)F)c(-c2cc(Cl)cc(C(F)(F)F)c2)c1NCc1ccccc1 [Ex. 33] | 5.28* | – | – | – | 90 | 100 | – | – | – | 80
9 | COc1ccc(CNc2c(-c3cc(Cl)cc(C(F)(F)F)c3)c(C(F)(F)F)nn2-c2nccnc2OC)cc1 [Ex. 41] | 5.13* | – | 100 | – | – | 100 | – | – | 80 | 90
10 | COc1nccnc1-n1nc(C(F)(F)C(F)(F)C(F)(F)F)c(-c2cc(Cl)cc(C(F)(F)F)c2)c1N [Ex. 46] | 4.91* | – | 100 | 100 | 80 | 100 | – | 100 | 80 | 80
11 | COc1nccnc1-n1nc(C(F)(F)C(F)F)c(-c2cc(Cl)cc(C(F)(F)F)c2)c1N [Ex. 59] | 4.05* | – | – | – | 100 | 100 | – | 83 | – | 100
12 | COc1cc(-c2c(C(F)(F)F)nn(-c3nccnc3OC)c2N)cc(C(F)(F)F)c1OC [Ex. 89] | 3.56* | – | 100 | 100 | – | 100 | 80 | 100 | 100 | –
13 | C=CCN(CC=C)c1c(-c2cc(Cl)cc(C(F)(F)F)c2)c(C(F)(F)F)nn1-c1nccnc1OC [Ex. 103] | 4.08* | – | – | – | – | – | – | – | – | 80

Continued, in another order:

Row | log P [7, 10] | log P ([7]; *** LC-MS, neutral range, pH 7.8, 0.001 molar aqueous ammonium hydrogencarbonate / acetonitrile) | Compound | efficacy (kill) [1] [%] | efficacy [2] [%] | efficacy [3] [%] | efficacy [4] [%] | efficacy (kill) [5] [%] | efficacy [6] [%] | efficacy (kill) [8] [%] | efficacy [9] [%]
14 | 3.47* | 3.5***; | COc1nccnc1-n1nc(C(F)(F)F)c(-c2cc(F)c(OC)c(Cl)c2)c1N [Ex. 124] | – | – | 90 | 100 | – | 100 | – | –
15 | 3.32* | – | COc1nccnc1-n1nc(C(F)(F)F)c(-c2cc(Br)c3c(c2)OCCCO3)c1N [Ex. 131] | 100 | 100 | 100 | 100 | 100 | 100 | 100 | –
16 | 3.02* | – | COc1nccnc1-n1nc(C(F)(F)F)c(-c2cc(Cl)c3c(c2)COCO3)c1N [Ex. 135] | 100 | 100 | – | 100 | – | 80 | 100 | –
17 | 3.25* | – | COc1nccnc1-n1nc(C(F)(F)F)c(-c2cc(Cl)c3c(c2)OCCCO3)c1N [Ex. 136] | 100 | 100 | – | 100 | – | – | 100 | –
18 | 4.21* | – | CCOc1cc(-c2c(C(F)(F)F)nn(-c3nccnc3OC)c2N)cc(Cl)c1OCC(F)(F)F [Ex. 144] | – | – | 100 | 100 | – | 100 | – | –
19 | 3.58* | – | COc1cc(-c2c(C(F)(F)C(F)F)nn(-c3nccnc3OC)c2N)cc(C(F)(F)F)c1OC [Ex. 157] | – | – | 100 | 100 | – | 100 | – | –
20 | 3.79* | – | C=C(C)c1nn(-c2nccnc2OC)c(N)c1-c1cc(Cl)cc(Cl)c1 [Ex. 167] | – | – | 100 | 100 | – | – | – | 100
21 | 3.77* | – | COc1nccnc1-n1nc(C(C)(C)F)c(-c2cc(Cl)cc(Cl)c2)c1N [Ex. 168] | – | – | 100 | 100 | – | 100 | – | 100
22 | 3.27* | – | COc1nccnc1-n1nc(C(F)(F)F)c(-c2cc3c(c(C(F)(F)F)c2)OCCO3)c1N [Ex. 173] | – | – | 90 | 100 | – | 100 | – | –
